Results on 1 compound are retold here after patent US20230043985A1, “ONCE DAILY CANCER TREATMENT REGIMEN WITH A PRMT5 INHIBITOR” (Pfizer Inc., priority 2019, published 2023).

Broadly, the inhibition is the relative decrease from the control value, in per cent. Lower therefore signals little suppression.

Data set [1] in a line: Phase 1 clinical PK of Compound 1 in patients (plasma, LC-MS/MS), Study NCT03854227. In kind it is in vivo, human. As to the method: Peak to trough ratio refers to the ratio of the maximum concentration (Cmax) to minimum concentration (Cmin) of Compound 1 observed. Relevant to the present invention is the peak to trough ration during the dosing interval at “steady state” (day 15). Blood samples for the characterization of PK profiles were collected at pre- and post-dose on Day 1 (single dose) and Day 15 (steady state), and were analyzed for Compound 1 using a validated liquid chromatography coupled with tandem mass spectrometry (LC-MS/MS) assay. The lower limit of quantitation of the assay was 0.250 ng/mL. The representative day 1 median PK profile of Compound 1 dosed at 2 mg BID is provided at FIG. 1. The representative steady state (day 15) median PK profile of Compound 1 dosed at 2 mg BID is provided at FIG. 2. Table 1 (below) depicts representative mean maximum (Cmax) and minimum (Cmin) daily concentrations of Compound 1 at “steady state” (day 15) dosed BID at 2 mg. A population pharmacokinetic (PK) model was generated based on the preliminary PK data from 6 patients received Compound 1 orally at doses up to 2 mg BID at steady state. It was observed that actual mean peak to trough ratio at steady state (here, 15 days of dosing) of Compound 1 in the NCT03854227 clinical trial was ˜2 for BID dosing, substantially lower than that previously predicted based on pre-clinical data (˜4 for BID). Furthermore, based on this population PK model, the steady state PK profiles following QD vs BID dosing (using a 16 mg total daily dose as an example) were compared using the individual PK parameters from each of these 6 patients. […] Compound 1 was provided to patients in three cohorts as tablets ((1) 1 mg tablets (for patient dosed with 4 mg QD); and 2) 1 mg and 5 mg tablets (for patients dosed with 6 mg QD and 8 mg QD)) supplied in separate labeled bottles for oral administration. Because patients were receiving 4 mg QD, 6 mg QD, and 8 mg QD, respectively, each of them were instructed to swallow whole (i.e., without crushing or chewing) 1) four 1 mg tablets (for the 4 mg QD cohort (N=3)); 2) one 5 mg tablets and one 1 mg tablet (for the 6 mg cohort (N=6)); and 3) one 5 mg tablet and three 1 mg tablets (for the 8 mg cohort (N=2)) at the same time each morning with at least 8 oz (240 mL) of water on an empty stomach. No food or liquids other than water were consumed for 2 hours before and 1 hour following each dose administration. Patients in these cohorts took Compound 1 orally QD as described above for four cycles (a cycle is 28 days). Weekly visits to the clinic were made by the patient to evaluate the anti-cancer activity and side effects of Compound 1. FIG. 5, FIG. 6, and FIG. 7 show the Day 15 steady state median concentration-time profiles for 4 mg QD, 6 mg QD, and 8 mg QD, respectively. […]

The nature of data set [2]: Pre-clinical prediction of human in vivo plasma clearance from human liver microsomes. In kind it is in vitro ADME. As to conditions: used as the predicted CL. As to the method:
(§1) Briefly, in vivo plasma clearance (CL) in humans was predicted to be ˜3 and ˜0.6 mL/min/kg from human liver microsomes and hepatocytes, respectively. The conservative value of ˜3 mL/min/kg from human liver microsomes was used as the predicted CL. […] A half-life (t1/2) is predicted to be ˜6 h calculated by the equation: t1/2=0.693*Vss/CL.

A short description of data set [3]: Tolerability of BID dosing scheme in Phase 1 clinical trial. It is filed as in vivo, human. To be noted: BID (twice daily) dosing scheme, patients. An excerpt:
These calculations, and in particular the half-life projection, were incorporated into the design of a Phase I clinical trial of Compound 1 [Study NCT03854227; A Phase 1 Study to Evaluate the Safety, Pharmacokinetics, and Pharmacodynamics of Escalating Doses Of [Compound 1] (PRMT Inhibitor) in Participants with Advanced or Metastatic Non-Small Cell Lung Cancer, Head And Neck Squamous Cell Carcinoma, Esophageal Cancer, Endometrial Cancer, Cervical Cancer And Bladder Cancer; first posted 26 Feb. 2019] which included BID (twice daily) dosing of 0.5 mg, 1 mg, 2 mg, 4 mg, 8 mg, 16 mg, 30 mg and 60 mg Compound 1. BID (twice daily) dosing was implemented for all doses thought to potentially be therapeutic in order to limit (i.e., lessen) the projected peak to trough ratio of Compound 1 in view of the predicted ˜6-hour half-life of Compound 1.
In this regard, it is noted that the primary indications for Compound 1 are various cancer types which are often accompanied by patients' physical and emotional difficulties in executing self-care. Moreover, many cancer indications become more prevalent with advancing age and is often accompanied by decline in memory. […]
Part 1A (dose escalation) has approximately 9 cohorts and enrolls approximately 40 participants. […] Dose limiting toxicities (DLT) were assessed at the end of Cycle 1 (28 days) to inform dose escalation and determine the MTD. […]

Data set [4] is described as follows: Pre-clinical projection of human Vss, half-life and peak to trough ratio (unbound Vss scaling from rats and dogs; t1/2=0.693*Vss/CL). To be noted: for predicted peak to trough ratio in humans: based on ~6-hour projected half-life. As to the method: as §1
Moreover, based on the ˜6-hour projected half-life for Compound 1 the likely peak to trough ratio in humans was predicted to be lower following twice daily (BID) dosing (˜4) compared to once daily (QD) dosing (˜8 or more). Lower peak to trough ratios are generally more desirable because they may help to minimize potential Cmax-related adverse effects (if any) while maintaining the therapeutic effects.
Half-life, for instance the half-life of Compound 1, refers to the time it takes for the plasma concentration of Compound 1 to decrease by 50% as calculated by the equation: 0.693*Vss/CL where Vss is the steady-state volume of distribution and CL is plasma clearance.

A further data set addresses T1, PRMT5 (Homo sapiens, UniProt O14744).
T1 construct: endogenous in cells; host or cells: tissues of the dosed subjects (in vivo); SDMA measured in plasma by LC-MS/MS
The data set is described as follows: Blood pharmacodynamic biomarker plasma SDMA inhibition (LC-MS/MS) in patients. In kind it is in vivo. As to the method:
The plasma SDMA (Symmetrical Dimethylarginine) level was used as a pharmacodynamic biomarker (PD) to monitor the inhibition effect of Compound 1. SDMA was chosen for the blood PD biomarker because PRMT5 catalyzes the formation of SDMA in a number of nuclear and cytoplasmic proteins, and PRMT5 inhibition would result in a decrease of SDMA. The quantitative determination of SDMA was performed by using a liquid chromatography mass spectrometry (LC-MS/MS) assay which is an exceedingly sensitive and specific analytical technique that can precisely determine the identities and concentration of compounds such as SDMA within a sample. The assay had been validated from 1-500 ng/ml in plasma. […] The plasma SDMA inhibition were around 60% for the first two cohorts (N=1 in each cohort), including 0.5 mg QD and 0.5 mg BID. The plasma SDMA inhibition was around 80% from cohort 3 to cohort 9, including 1 mg BID (N=2), 2 mg BID (N=3), 4 mg BID (N=3), 6 mg BID (N=4), 4 mg QD (N=5), 6 mg QD (N=6), and 8 mg QD (N=3).

The nature of data set [5]: Pre-clinical prediction of human in vivo plasma clearance from hepatocytes. It is filed as in vitro ADME. As to the method: as §1

T1 sequence (O14744 whole entry): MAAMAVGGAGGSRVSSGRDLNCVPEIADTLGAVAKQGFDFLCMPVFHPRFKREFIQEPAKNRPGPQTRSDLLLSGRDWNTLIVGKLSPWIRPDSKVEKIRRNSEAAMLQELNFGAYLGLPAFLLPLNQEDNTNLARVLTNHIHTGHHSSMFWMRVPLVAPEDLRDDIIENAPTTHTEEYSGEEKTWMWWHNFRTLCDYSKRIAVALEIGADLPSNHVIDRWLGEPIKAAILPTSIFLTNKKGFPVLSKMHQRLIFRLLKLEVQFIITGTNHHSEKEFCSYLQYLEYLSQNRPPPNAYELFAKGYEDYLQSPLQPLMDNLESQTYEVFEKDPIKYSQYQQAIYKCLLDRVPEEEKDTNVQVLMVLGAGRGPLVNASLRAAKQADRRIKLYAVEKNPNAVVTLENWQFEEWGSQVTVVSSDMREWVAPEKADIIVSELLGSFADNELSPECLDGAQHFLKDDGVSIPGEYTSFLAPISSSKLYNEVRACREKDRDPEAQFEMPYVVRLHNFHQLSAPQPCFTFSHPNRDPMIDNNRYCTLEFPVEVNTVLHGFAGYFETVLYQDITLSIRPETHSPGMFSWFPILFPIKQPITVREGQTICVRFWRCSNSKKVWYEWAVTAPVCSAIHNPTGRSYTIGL
T1 sequence (Q9BQA1 whole entry partner): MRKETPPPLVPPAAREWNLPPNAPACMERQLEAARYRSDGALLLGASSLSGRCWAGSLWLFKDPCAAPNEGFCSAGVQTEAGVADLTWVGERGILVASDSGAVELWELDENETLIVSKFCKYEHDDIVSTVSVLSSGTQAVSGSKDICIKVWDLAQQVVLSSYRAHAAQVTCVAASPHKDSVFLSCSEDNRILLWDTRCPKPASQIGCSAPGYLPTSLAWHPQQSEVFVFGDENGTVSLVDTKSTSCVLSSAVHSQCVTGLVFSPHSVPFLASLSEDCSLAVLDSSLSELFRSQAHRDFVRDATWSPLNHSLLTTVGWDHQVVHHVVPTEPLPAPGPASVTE

For the compound `Cc1ncnc2c1ccn2[C@@H]1C[C@H](Oc2cc(C(F)F)c(F)c3c2CNCC3)[C@@H](O)[C@H]1O` [Compound 1, (1S,2S,3S,5R)-3-((6-(difluoromethyl)-5-fluoro-1,2,3,4-tetrahydroisoquinolin-8-yl)oxy)-5-(4-methyl-7H-pyrrolo[2,3-d]pyrimidin-7-yl)cyclopentane-1,2-diol], the “actual mean peak to trough ratio at steady state” value in data set [1] (BID dosing, doses up to 2 mg BID, 15 days of dosing, patients) is around 2. Further, in data set [1] (QD oral dosing (4 mg, 6 mg, 8 mg QD cohorts), Day 15, patients), the “peak-to-trough ratio at steady state (median)” value is given as 3.1. The Cmax at 15 day in data set [1] (human, plasma, 2 mg BID oral, steady state (day 15), patients, N=2, read-out: Cmax (mean maximum daily concentration)) came out at 0.0269 µg/mL. Moreover, the concentration at 15 day in data set [1] (human, plasma, 2 mg BID oral, steady state (day 15), patients, N=2, read-out: Cmin (mean minimum daily concentration)) worked out at 0.0146 µg/mL. For the same compound, the “predicted in vivo plasma clearance (CL) in humans” value in data set [2] is around 0.18 L/h/kg; in data set [5], around 0.036 L/h/kg. Also, the tolerability result in data set [3] is on record as “well tolerated”. In addition, the “predicted half-life (t1/2) in humans” value in data set [4] (calculated t1/2=0.693*Vss/CL) is reported as around 6 h. Also, in data set [4] (mean unbound Vss scaling from rats and dogs, factoring in human plasma protein binding), the “predicted steady-state volume of distribution (Vss) in humans” value is 1.6 L/kg. In addition, the “predicted peak to trough ratio in humans” value in data set [4] (once daily (QD) dosing) is reported as at least 8; in data set [4] (twice daily (BID) dosing), around 4. The “plasma SDMA inhibition” value at PRMT5 (cohort 3 to cohort 9: 1, 2, 4, 6 mg BID and 4, 6, 8 mg QD) is on record as “around 80%”. Besides, at PRMT5 (human, first two cohorts: 0.5 mg QD and 0.5 mg BID (N=1 in each)), the inhibition at 0.5 mg was around 60%. For the same compound, the “SDMA reduction over time” value at PRMT5 (plasma, different dose levels, patients (FIG. 8)) is given as 60-80%.
